In patent US11225469B2, “Inhibitors of phosphoglycerate dehydrogenase (PHGDH) and uses thereof” (Whitehead Institute for Biomedical Research, priority 2015, dated 2022):

Each compound was assayed against PHGDH (Homo sapiens (Human), UniProt O43175) (assay: PHGDH inhibition, coupled assay with PSAT1/PSPH and diaphorase/resazurin readout). Settings: Table E9; mixture with PSAT1, PSPH; diaphorase/resazurin reporter.
Assay type: biochemical
Description: Compounds of the invention were assayed for inhibition of the activity phosphoglycerate dehydrogenase (PHGDH). The compounds were assayed in a mixture comprising PHGDH, PSAT1, PSPH, NADH, and glutamate. Diaphorase and resazurin were used as a fluorescent reporter system.
In this endogenous pathway coupled assay, the production of NADH by PHGDH was measured through the diaphorasemediated reduction of resazurin (See, e.g., Chakraborty, S., Sakka, M., Kimura, T. & Sakka, K. “Characterization of a dihydrolipoyl dehydrogenase having diaphorase activity of Clostridium kluyveri.” BioscL Biotechnol. Biochem. 72, 982-988 (2008)).
PHGDH assay buffer contained 50 mM TEA pH 8.0, 10 mM MgCl2, 0.05% BSA, and 0.01% Tween-20. PHGDH enzyme buffer consisted of assay buffer with 20 nM PHGDH and 0.2 mg/mL diaphorase. PHGDH substrate buffer contained 0.3 mM NAD 1.25 mM glutamate, 0.1 mM 3-phosphoglycerate, 0.2 mM resazurin, 1 μM PSAT1, and 1 μM PSPH. qHTS was performed in 1536-well plates dispensed with a BioRAPTR FRD. Each well contained equal volumes of substrate buffer and assay buffer. Plates were read at 0 minutes and 20 minutes at room temperature with a ViewLux uHTS Microplate Imager (PerkinElmer). Follow-up assays were performed in black 384-well plates (Greiner) in 20 μL of enzyme buffer to which compounds were added in dose-response with an HP D300 digital dispenser (Hewlett-Packard), followed by addition of 20 μL of substrate buffer. Plates were incubated at room temperature (25° C.) and read at 0 and 20 minutes with a Spectramax M5 plate reader (Molecular Devices) in fluorescence intensity mode with a λex=550 nm and λem=600 nm (emission cutoff=590 nm).

PHGDH, sequence (O43175 whole entry): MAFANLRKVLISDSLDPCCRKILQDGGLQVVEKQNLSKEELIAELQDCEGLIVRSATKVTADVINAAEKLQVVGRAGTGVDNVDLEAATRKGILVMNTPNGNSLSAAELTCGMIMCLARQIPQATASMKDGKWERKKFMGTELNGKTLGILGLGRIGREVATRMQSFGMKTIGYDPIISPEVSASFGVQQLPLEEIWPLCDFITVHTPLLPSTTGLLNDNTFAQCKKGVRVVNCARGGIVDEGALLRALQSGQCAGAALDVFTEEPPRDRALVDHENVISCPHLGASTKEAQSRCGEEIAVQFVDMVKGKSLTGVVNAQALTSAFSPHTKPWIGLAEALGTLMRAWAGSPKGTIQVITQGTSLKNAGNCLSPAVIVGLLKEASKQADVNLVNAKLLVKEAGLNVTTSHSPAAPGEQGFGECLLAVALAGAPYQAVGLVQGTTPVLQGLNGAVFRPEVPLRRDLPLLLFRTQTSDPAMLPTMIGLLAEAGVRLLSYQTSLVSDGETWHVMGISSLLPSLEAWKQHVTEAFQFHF

| IC50 | Compound |
| --- | --- |
| ≥ 20 µM | Cc1ccnc(NC(=O)N2CCN(c3cccc(C(F)(F)F)c3)CC2)c1 [Compound 3] |
| 5 to 10 µM | Cc1ccnc(NC(=S)N2CCN(c3ccc(C(F)(F)F)cc3)CC2)c1 [Compound 4] |
| ≥ 20 µM | Cc1ccnc(NC(=S)N2CCN(c3cccc([N+](=O)[O-])c3)CC2)c1 [Compound 5] |
| 10 to 20 µM | Cc1ccnc(NC(=S)N2CCN(c3cccc(N(C)C)c3)CC2)c1 [Compound 6] |
| ≥ 20 µM | Cc1ccnc(NC(=S)N2CCN(c3ccc(F)cc3)CC2)c1 [Compound 7] |
| ≥ 20 µM | Cc1ccnc(NC(=S)N2CCN(c3ccc(Cl)cc3)CC2)c1 [Compound 8] |
| ≥ 20 µM | Cc1ccnc(NC(=S)N2CCN(c3ccc(Br)cc3)CC2)c1 [Compound 9] |
| ≥ 20 µM | Cc1ccnc(NC(=S)N2CCN(c3ccc(C#N)cc3)CC2)c1 [Compound 10] |
| ≥ 20 µM | Cc1ccc(N2CCN(C(=S)Nc3cc(C)ccn3)CC2)cc1 [Compound 11] |
| ≥ 20 µM | COc1ccc(N2CCN(C(=S)Nc3cc(C)ccn3)CC2)cc1 [Compound 12] |
| ≥ 20 µM | Cc1ccnc(NC(=S)N2CCN(c3ccc(O)cc3)CC2)c1 [Compound 13] |
| ≥ 20 µM | CC(=O)c1ccc(N2CCN(C(=S)Nc3cc(C)ccn3)CC2)cc1 [Compound 14] |
| ≥ 20 µM | CCN1CCN(C(=S)c2ccc(O)cc2)CC1 [Compound 15] |
| ≥ 20 µM | Cc1ccnc(NC(=S)N2CCN(C)CC2)c1 [Compound 16] |
| ≥ 20 µM | Cc1ccnc(NC(=S)N2CCN(c3ccc(N)cc3)CC2)c1 [Compound 17] |
| ≥ 20 µM | CC(=O)N1CCN(C(=S)Nc2cc(C)ccn2)CC1 [Compound 18] |
| ≥ 20 µM | CSC(Cc1ccc(Cl)cc1)C(=O)Nc1ccc(Cl)cc1C(=O)O (stereo not shown) [Compound 19] |
| ≥ 20 µM | CC(Cc1ccccc1)C(=O)Nc1ccc(Cl)cc1C(=O)O (stereo not shown) [Compound 20] |
| ≥ 20 µM | Cc1ccnc(NC(=S)NCCN(C)c2cccc(C(F)(F)F)c2)c1 [Compound 21] |
| 5 to 10 µM | Cc1ccnc(NC(=S)NCCNc2cccc(C(F)(F)F)c2)c1 [Compound 22] |
| ≥ 20 µM | Cc1cccc(NC(=S)N2CCN(c3cccc(C(F)(F)F)c3)CC2)c1 [Compound 23] |
| 5 to 10 µM | Cc1cc(C)nc(NC(=S)N2CCN(c3cccc(C(F)(F)F)c3)CC2)c1 [Compound 24] |
| 5 to 10 µM | FC(F)(F)c1ccc(N2CCN(C(=S)Nc3ccccn3)CC2)cc1 [Compound 25] |

| IC50 | Compound |
| --- | --- |
| 5 to 10 µM | FC(F)(F)c1cccc(N2CCN(C(=S)Nc3cc(C(F)(F)F)ccn3)CC2)c1 [Compound 26] |
| ≥ 20 µM | OCc1ccnc(NC(=S)N2CCN(c3cccc(C(F)(F)F)c3)CC2)c1 [Compound 27] |
| < 5 µM | COC(=O)c1ccnc(NC(=S)N2CCN(c3cccc(C(F)(F)F)c3)CC2)c1 [Compound 28] |
| 5 to 10 µM | Cc1cncc(NC(=S)N2CCN(c3cccc(C(F)(F)F)c3)CC2)c1 [Compound 29] |
| < 5 µM | FC(F)(F)c1cccc(N2CCN(C(=S)Nc3cccnc3)CC2)c1 [Compound 30] |
| 10 to 20 µM | FC(F)(F)c1cccc(N2CCN(C(=S)Nc3ccncc3)CC2)c1 [Compound 31] |
| 5 to 10 µM | FC(F)(F)c1cccc(N2CCN(C(=S)Nc3nccc4ccccc34)CC2)c1 [Compound 32] |
| 10 to 20 µM | FC(F)(F)c1cccc(N2CCN(C(=S)Nc3ccc4ccccc4n3)CC2)c1 [Compound 34] |
| 5 to 10 µM | FC(F)(F)c1cccc(N2CCN(C(=S)Nc3ccccn3)CC2)c1 [Compound 35] |
| < 5 µM | COc1ccnc(NC(=S)N2CCN(c3cccc(C(F)(F)F)c3)CC2)c1 [Compound 36] |
| ≥ 20 µM | COc1ccc(NC(=S)N2CCN(c3cccc(C(F)(F)F)c3)CC2)nc1 [Compound 37] |
| 5 to 10 µM | COc1cccc(NC(=S)N2CCN(c3cccc(C(F)(F)F)c3)CC2)n1 [Compound 38] |
| 10 to 20 µM | Cc1cccc(N2CCN(C(=S)Nc3cc(C)ccn3)CC2)c1 [Compound 39] |
| 5 to 10 µM | Cc1ccnc(NC(=S)N2CCN(c3ccccc3C(F)(F)F)CC2)c1 [Compound 41] |
| ≥ 20 µM | Cc1ccnc(NC(=S)N[C@@H]2CCN(c3cccc(C(F)(F)F)c3)C2)c1 [Compound 42] |
| ≥ 20 µM | Cc1ccnc(NC(=S)N[C@H]2CCN(c3cccc(C(F)(F)F)c3)C2)c1 [Compound 43] |
| ≥ 20 µM | Cc1ccnc(NC(=S)N2CCN(c3cccc(C(F)(F)F)c3)C2)c1 [Compound 44] |
| 10 to 20 µM | Cc1ccnc(NC(=S)N2CC3CN(c4cccc(C(F)(F)F)c4)CC3C2)c1 (stereo not shown) [Compound 45] |
| 10 to 20 µM | Cc1ccnc(NC(=S)Nc2cccc(C(F)(F)F)c2)c1 [Compound 46] |
| ≥ 20 µM | Cc1ccnc(NC(=S)NC2CN(c3cccc(C(F)(F)F)c3)C2)c1 [Compound 47] |
| 10 to 20 µM | Cc1ccnc(NC(=S)N2CCN(c3cccc(C(F)(F)F)c3)C[C@@H]2C)c1 [Compound 48] |
| 10 to 20 µM | Cc1ccnc(NC(=S)N2CCCN(c3cccc(C(F)(F)F)c3)CC2)c1 [Compound 49] |
| 10 to 20 µM | Cc1ccnc(NC(=S)NC2CCN(c3cccc(C(F)(F)F)c3)CC2)c1 [Compound 50] |

| IC50 | Compound |
| --- | --- |
| ≥ 20 µM | Cc1ccnc(NC(=S)N2CCc3ccccc3C2)c1 [Compound 51] |
| ≥ 20 µM | Cc1ccnc(N(C)C(=S)N2CCN(c3cccc(C(F)(F)F)c3)CC2)c1 [Compound 52] |
| ≥ 20 µM | Cc1ccnc(NC(=S)N2CCNCC2)c1 [Compound 53] |
| 5 to 10 µM | Cc1ccnc(NC(=S)NC2CCCN(c3cccc(C(F)(F)F)c3)C2)c1 (stereo not shown) [Compound 54] |
| ≥ 20 µM | Cc1ccnc(NC(=S)N2CC[C@@H](Nc3cccc(C(F)(F)F)c3)C2)c1 [Compound 55] |
| 5 to 10 µM | Cc1ccnc(NC(=S)N2CCC(Nc3cccc(C(F)(F)F)c3)CC2)c1 [Compound 56] |
| 5 to 10 µM | Cc1ccnc(NC(=S)N2CCCC(Nc3cccc(C(F)(F)F)c3)C2)c1 (stereo not shown) [Compound 58] |
| 10 to 20 µM | Cc1ccnc(NC(=S)N2CCc3cccc(C(F)(F)F)c3C2)c1 [Compound 59] |
| ≥ 20 µM | Cc1ccnc(NC(=S)N2CCCc3ccc(C(F)(F)F)cc32)c1 [Compound 60] |
| 10 to 20 µM | Cc1ccnc(NC(=S)N2CCc3cc(C(F)(F)F)ccc3C2)c1 [Compound 61] |
| ≥ 20 µM | Cc1ccnc(C(=S)N2CCN(c3cccc(C(F)(F)F)c3)CC2)c1 [Compound 62] |
| 5 to 10 µM | Cc1cc(C)nc(NC(=S)N2CCN(c3cc(C(F)(F)F)cc(C(F)(F)F)c3)CC2)c1 [Compound 64] |
| 5 to 10 µM | Cc1cc(C)nc(NC(=S)N2CCN(c3cc(Cl)cc(Cl)c3)CC2)c1 [Compound 65] |
| 10 to 20 µM | Cc1cc(C)nc(NC(=S)N2CCN(c3cccc(C#N)c3)CC2)c1 [Compound 66] |
| 5 to 10 µM | Cc1cc(C)nc(NC(=S)N2CCN(c3ccc(Cl)cc3Cl)CC2)c1 [Compound 68] |
| 5 to 10 µM | Cc1cc(C)nc(NC(=S)N2CCN(c3cccc4ccccc34)CC2)c1 [Compound 69] |
| 5 to 10 µM | Cc1cc(C)nc(NC(=S)N2CCN(c3ccc4ccccc4c3)CC2)c1 [Compound 70] |
| ≥ 20 µM | Cc1cc(C)nc(NC(=S)N2CCN(c3ccccn3)CC2)c1 [Compound 77] |
| 10 to 20 µM | Cc1cc(C)nc(NC(=S)N2CCN(c3ncccc3Cl)CC2)c1 [Compound 79] |
| ≥ 20 µM | Cc1cc(C)nc(NC(=S)N2CCN(c3ncccn3)CC2)c1 [Compound 80] |
| 5 to 10 µM | Cc1cc(C)nc(NC(=S)N2CCN(c3ncc(Cl)cc3Cl)CC2)c1 [Compound 81] |
| ≥ 20 µM | Cc1cc(C)nc(NC(=S)N2CCN(c3ccc(N[S+](C)(=O)[O-])nn3)CC2)c1 [Compound 83] |
| ≥ 20 µM | Cc1cc(C)nc(NC(=S)N2CCN(c3ccc(N4CCCC4)nn3)CC2)c1 [Compound 84] |

| IC50 | Compound |
| --- | --- |
| 10 to 20 µM | Cc1cc(C)nc(NC(=S)N2CCN(c3ccc4ccccc4n3)CC2)c1 [Compound 85] |
| 10 to 20 µM | Cc1cc(C)nc(NC(=S)N2CCN(c3coc4ccccc34)CC2)c1 [Compound 86] |
| ≥ 20 µM | Cc1cc(C)nc(NC(=S)N2CCN(c3nccs3)CC2)c1 [Compound 87] |
| 10 to 20 µM | Cc1cc(C)nc(NC(=S)N2CCN(c3ccccc3C#N)CC2)c1 [Compound 89] |
| 5 to 10 µM | Cc1cc(C)nc(NC(=S)N2CCN(c3ccc(F)cc3F)CC2)c1 [Compound 90] |
| ≥ 20 µM | Cc1cc(C)nc(NC(=S)N2CCN(c3ccc(Cl)c(Cl)c3)CC2)c1 [Compound 92] |
| 5 to 10 µM | Cc1cc(C)nc(NC(=S)N2CCN(c3cccc(Cl)c3Cl)CC2)c1 [Compound 93] |
| 5 to 10 µM | Cc1cc(C)nc(NC(=S)N2CCN(Cc3c(F)cccc3Cl)CC2)c1 [Compound 94] |
| ≥ 20 µM | Cc1cc(C)nc(N/C(=N/C#N)N2CCN(c3cccc(C(F)(F)F)c3)CC2)c1 [Compound 95] |
| ≥ 20 µM | Cc1cc(C)nc(NC(=C(C#N)C#N)N2CCN(c3cccc(C(F)(F)F)c3)CC2)c1 [Compound 96] |
| < 5 µM | Cc1cc(C)nc(NC(=S)N2CCN([S+](=O)([O-])c3cccc(C(F)(F)F)c3)CC2)c1 [Compound 100] |
| ≥ 20 µM | Cc1cc(C)nc(NC(=S)N2CCN(c3ccc(C(=O)O)cc3)CC2)c1 [Compound 101] |
| ≥ 20 µM | Cc1cc(C)nc(NC(=S)N2CCN(c3cccc(C(=O)O)c3)CC2)c1 [Compound 102] |
| 10 to 20 µM | Cc1cc(C)nc(NC(=S)N2CCN(c3nccc4occc34)CC2)c1 [Compound 103] |
| ≥ 20 µM | Cc1cc(C)nc(NC(=S)N2CCN(c3nc(C)cnc3C)CC2)c1 [Compound 104] |
| 10 to 20 µM | Cc1cc(C)nc(NC(=S)N2CCN(c3nc4ccccc4o3)CC2)c1 [Compound 105] |
| 10 to 20 µM | Cc1cc(C)nc(NC(=S)N2CCN(c3nc4ccccc4s3)CC2)c1 [Compound 106] |
| 10 to 20 µM | Cc1cc(C)nc(NC(=S)N2CCN(c3nnc(C(F)(F)F)s3)CC2)c1 [Compound 107] |
| 10 to 20 µM | Cc1cc(C)nc(NC(=S)N2CCN(c3nsc4ccccc34)CC2)c1 [Compound 108] |
| ≥ 20 µM | Cc1cc(C)nc(NC(=S)N2CCN(c3ccc([S+](C)(=O)[O-])cc3F)CC2)c1 [Compound 109] |
| 5 to 10 µM | Cc1cc(C)nc(NC(=S)N2CCN(c3ccc(C(F)(F)F)cc3[N+](=O)[O-])CC2)c1 [Compound 110] |
| 5 to 10 µM | Cc1cc(C)nc(NC(=S)N2CCN(c3ncc(C(F)(F)F)cc3Cl)CC2)c1 [Compound 111] |
